Key:
HFL-1 cells = assay: Radioprotective effects on cultured normal cells (colony formation after irradiation); type: cell-based, human; details: HFL-1 normal diploid lung fibroblasts; 2.5 to 20 micromolar for 24 hrs before 10 Gy or 15 Gy IR; colonies counted after 3 weeks
Method: HFL-1 cells, which are normal diploid lung fibroblasts, were plated into 24 well dishes at a cell density of 3000 cells per 10 mm^2 in DMEM completed with 10% fetal bovine serum and antibiotics. The test compounds listed in Table 16 were added to the cells 24 hours later in select concentrations from 2.5 to 20 micromolar, inclusive, using DMSO as a solvent. Control cells were treated with DMSO alone. The cells were exposed to the test compound or DMSO for 24 hrs. The cells were then irradiated with either 10 Gy (gray) or 15 Gy of ionizing radiation (IR) using a J. L. Shepherd Mark I, Model 30-1 Irradiator equipped with ^137cesium as a source.
After irradiation, the medium on the test and control cells was removed and replaced with fresh growth medium without the test compounds or DMSO. The irradiated cells were incubated for 96 hours and duplicate wells were trypsinized and replated onto 100 mm^2 tissue culture dishes. The replated cells were grown under normal conditions with one change of fresh medium for 3 weeks. The number of colonies from each 100 mm^2 culture dish, which represents the number of surviving cells, was determined by staining the dishes as described below.
To visualize and count the colonies derived from the clonal outgrowth of individual radioprotected cells, the medium was removed and the plates were washed one time with room temperature phosphate buffered saline. The cells were stained with a 1:10 diluted Modified Giemsa staining solution (Sigma) for 20 minutes. The stain was removed, and the plates were washed with tap water. The plates were air dried, the number of colonies from each plate were counted and the average from duplicate plates was determined.
A “+” indicates radioprotective activity of between 2- and 4.5-fold at the concentrations tested. Fold protection was determined by dividing the average number of colonies from the test plates by the average number of colonies on the control plates.

DU145 cells = assay: Tumor cell killing by ionizing radiation, compound added after IR treatment; type: cell-based; details: for Interference with killing of tumor cells by ionizing radiation: continuous exposure, added immediately following 10 Gy IR
Method: DU145 cells were plated in 6 well dishes at a cell density of 1.0×10^5 cells per 35 mm^2 in DMEM completed with 10% fetal bovine serum and antibiotics. The plates were incubated overnight and the cells were irradiated with 10 Gy of ionizing irradiation. Compound 1 (1.0 uM and 2.0 uM) or Compound 13 (10.0 uM and 20.0 uM) in DMSO was added to the cells immediately following the IR treatment.

C57 black mice = assay: Protection of mice from radiation toxicity by pre-treatment (mortality after 8 Gy); type: in vivo
Method: C57 black mice age 10-12 weeks (Taconic) were divided into two treatment groups of 10 mice each. One group, designated the “200×2” group, received intraperitoneal injections of 200 micrograms (E)-4-carboxystyryl-4-chlorobenzylsulfone dissolved in DMSO (a 10 mg/Kg dose, based on 20 g mice) 18 and 6 hours before irradiation with 8 Gy gamma radiation. The other group, designated “500×2,” received intraperitoneal injections of 500 micrograms (E)-4-carboxystyryl-4-chlorobenzylsulfone dissolved in DMSO (a 25 mg/Kg dose, based on 20 g mice) 18 and 6 hours before irradiation with 8 Gy gamma radiation. A control group of 16 animals received 8 Gy gamma radiation alone.

C57 B6/J mice = assay: Radioprotective effect in mice when given after radiation exposure (mortality after 8 Gy); type: in vivo
Method: One group, designated the “200×2” group, received intraperitoneal injections of 200 micrograms (E)-4-carboxystyryl-4-chlorobenzylsulfone dissolved in DMSO (a 10 mg/Kg dose, assuming 20 g mice) 18 and 6 hours before irradiation with 8 Gy gamma radiation. The other group, designated “200 Post,” received an intraperitoneal injection of 200 micrograms (E)-4-carboxystyryl-4-chlorobenzylsulfone dissolved in DMSO (a 10 mg/Kg dose, based on 20 g mice) 15 minutes after irradiation with 8 Gy gamma radiation. A control group of 16 animals received 8 Gy gamma radiation alone.

[1] = "200×2" group: 10 mg/Kg i.p. 18 and 6 hours before 8 Gy gamma radiation
[2] = "500×2" group: 25 mg/Kg i.p. 18 and 6 hours before 8 Gy gamma radiation

In the case of `O=S(=O)(/C=C/c1ccoc1)Cc1ccc(Cl)cc1Cl` [Compound 8, (E)-3-Furanethenyl-2,4-dichlorobenzylsulfone], the “Activity (radioprotective activity, fold protection: colonies test/control)” value (HFL-1 cells) is reported as “+ (radioprotective activity of between 2- and 4.5-fold at the concentrations tested)”.
“(Z)-Styryl-(E)-2-methoxy-4-ethoxystyrylsulfone [Compound 11]” was tested, and the “Activity (radioprotective activity, fold protection: colonies test/control)” value (HFL-1 cells) was “+ (radioprotective activity of between 2- and 4.5-fold at the concentrations tested)”.
For `O=S(=O)(/C=C\c1ccc(F)cc1)Cc1ccc(Cl)cc1` [Compound 7, (Z)-4-Fluorostyryl-4-chlorobenzylsulfone], the “Activity (radioprotective activity, fold protection: colonies test/control)” value (HFL-1 cells) was “+ (radioprotective activity of between 2- and 4.5-fold at the concentrations tested)”.
For “(E)-4-Fluorostyryl-4-cyanobenzylsulfone [Compound 6]”, the “Activity (radioprotective activity, fold protection: colonies test/control)” value (HFL-1 cells) was “+ (radioprotective activity of between 2- and 4.5-fold at the concentrations tested)”.
For “(E)-4-Fluorostyryl-4-chlorophenylsulfone [Compound 10]”, the “Activity (radioprotective activity, fold protection: colonies test/control)” value (HFL-1 cells) was “+ (radioprotective activity of between 2- and 4.5-fold at the concentrations tested)”.
With “(E)-2,4,6-Trimethoxystyryl-4-methoxybenzylsulfone [Compound 2]” the “Activity (radioprotective activity, fold protection: colonies test/control)” value (HFL-1 cells) was “+ (radioprotective activity of between 2- and 4.5-fold at the concentrations tested)”.
For “(E)-4-Fluorostyryl-4-trifluoromethylbenzylsulfone [Compound 5]”, the “Activity (radioprotective activity, fold protection: colonies test/control)” value (HFL-1 cells) was “+ (radioprotective activity of between 2- and 4.5-fold at the concentrations tested)”.
For `O=C(O)c1ccc(/C=C/S(=O)(=O)Cc2ccc(Cl)cc2)cc1` [Compound 13, (E)-4-Carboxystyryl-4-chlorobenzylsulfone], the “Activity (radioprotective activity, fold protection: colonies test/control)” value (HFL-1 cells) was “+ (radioprotective activity of between 2- and 4.5-fold at the concentrations tested)”, the “Additive tumor cell killing effect” value (DU145 cells; 20 uM added immediately following 10 Gy IR) was “additive tumor cell killing effect” and the “Interference with killing of tumor cells by ionizing radiation” value (DU145 cells) was “did not interfere with the killing of tumor cells by ionizing radiation”. The “Maximum mortality rate by day 40” value (C57 black mice; [1]) was “approximately 60%”, the “Mice dead at day 20 post-irradiation” value (C57 black mice; [1]) was “about 50%” and the “Maximum mortality rate by day 40” value (C57 black mice; [2]) was “about 50%”. The “Mice dead at day 20 post-irradiation” value (C57 black mice; [2]) was “about 30%”, the “Radiation toxicity in mice” value (C57 black mice; pretreatment 18 and 6 hours before 8 Gy gamma radiation) was “significantly reduced” and the “Radioprotection by post-irradiation treatment versus pre-irradiation treatment” value (C57 B6/J mice; "200 Post" vs "200×2" group, 8 Gy gamma radiation) was “not as great as seen with pre-irradiation treatment”. For the same molecule, the “Radiation-induced mortality compared with control animals” value (C57 B6/J mice; "200 Post": 10 mg/Kg i.p. 15 minutes after 8 Gy gamma radiation) was “significant delay in radiation-induced mortality”.
`O=S(=O)(/C=C/c1ccc(F)cc1)Cc1ccc(Cl)cc1` [Compound 1, (E)-4-Fluorostyryl-4-chlorobenzylsulfone] was tested, and the “Activity (radioprotective activity, fold protection: colonies test/control)” value (HFL-1 cells) was “+ (radioprotective activity of between 2- and 4.5-fold at the concentrations tested)”, the “Additive tumor cell killing effect” value (DU145 cells; 2.0 uM added immediately following 10 Gy IR) was “additive tumor cell killing effect” and the “Interference with killing of tumor cells by ionizing radiation” value (DU145 cells) was “did not interfere with the killing of tumor cells by ionizing radiation”.

Reference: US6667346B2, “Method for protecting cells and tissues from ionizing radiation toxicity with α, β unsaturated aryl sulfones” (Temple University - Of The Commonwealth System of Higher …, priority 2001, dated 2003)
